In patent US4020164A, “Benzomorphan derivatives” (priority 1972, dated 1977):
Where two headings read alike, the source gives them in different places.

Legend:
morphine [1] = tested on: morphine; set-up: species or system mice; conditions: mouse, in vivo
electroshock = assay: Maximal electroshock test; format: in vivo; conditions: Mus musculus, sc, 0.5 h; mice; 16 mA/50 c.p.s., 0.2 second, transcorneal; absence of tonic extensor cramp of hind limbs, 30 min
Protocol: 10-40 controls animals were used in each experiment. […] ED50 figures were rounded.
In the maximum electroshock test, the test substances were administered to dose groups of 6 mice. Sinusoidal pulses of 16 milliamperes/50 c.p.s. [Hertz] and 0.2 second duration were delivered transcorneally via silver electrodes. The shock intensity used elicits nonlethal tonic-clonic convulsions in control animals (p <0.01, N = 192). The criterion for protective effect was the absence of the tonic extensor cramp of the hind limbs after shock application (modified test according to Swinyard et al., J. Pharmacol. Exp. Ther. 106, 319, 1952).

naloxone = assay: Naloxone challenge after subchronic administration of test compound (physical dependency); conditions: mice; naloxone in doses of up to 100 mg/kg; same schedule and total dosage as for acute morphine dependency
phenylquinone [2] = assay: Writhing test, acute (phenylquinone writhing, analgesic activity); format: in vivo; conditions: Mus musculus, mice, acute, phenylquinone 2 mg/kg i.p., hydrochloride
Protocol: (§1) The pharmacological investigations were conducted on mice weighing 20-22 g. or on rats weighing 80-110 g. Unless indicated otherwise, the test substances were administered in the form of the hydrochloride acid addition salt thereof in an isotonic NaCl solution, and the animals were examined 30 minutes after subcutaneous (sc) application. The injection volume was respectively 5 ml./kg. of body weight. 10-40 controls animals were used in each experiment. The test and control solutions were administered in accordance with a randomized injection schedule. Seven logarithmically spaced dosages were employed of each test substance. The effective dose (ED) was calculated by probit analysis (Finney, D. J., "Probit Analysis," Cambridge University Press, 2nd Edition, Cambridge 1957). ED50 figures were rounded.
(§2) In the acute test, the test compounds were administered perorally (p.o.) or subcutaneously (s.c.) to mice. Eight mice were used per dose. Seven minutes prior to the testing, the animals received 2 mg./kg. of phenylquinone intraperitoneally. […] The criterion for protective effect was absence of writhes during the eighth minute after phenylquinone administration.

phenylquinone [3] = conditions: mice; after subchronic administration of equal total doses
Protocol: as §1, §2
In the subchronic test, the same test was performed 25 hours after the last injection of a 64-hour pretreatment period, with the test compound being administered subcutaneously. During the pretreatment period, the subjects received a total of 550 mg/kg. of the test compound, with the test compound being injected over a period of 22 hours in 4 increasing dosages in salt form, and over an additional 42 hours in 2 identical dosages in free base form in sesame oil.

morphine [4] = assay: animal or person; format: in vivo, rats
morphine [5] = assay: Precipitated Withdrawal Jumping Test (morphine antagonism in morphine-dependent mice); format: in vivo; conditions: morphine-dependent mice
Protocol: as §1
The test compound was given to dose groups of 8 animals. The antagonist-precipitated withdrawal jumping frequencies were recorded during three 5-minute observation intervals uniformly distributed over 30 minutes after administration of the test compound. […] The criterion for a precipitating effect is a mean jumping frequency of >1/minute.

apomorphine = assay: Apomorphine antagonism test; format: in vivo, mice; conditions: Mus musculus, sc, read-out: ED50, Apomorphine Antagonism
Protocol: as §1
The criterion for antagonistic effect was the absence of stereotyped movements within an observation period of one minute.

For CC(C)=CCN1CCC2(C)c3cc(O)ccc3CC1C2C (centres unmarked) [Pentazocine, reference compound], the “morphine-antagonistic activity, tail-flick test (in words), mice” value (morphine [1]) was “weaker activity”, the “ED50, Morphine Antagonism-Tail-Flick Test, Mice” value (morphine [1]; sc, 12.5 mg/kg) was 5 mg/kg and the ED50 (electroshock) was 17 mg/kg. The “withdrawal jumping precipitated by naloxone after subchronic administration (morphine-like physical dependency)” value (naloxone) was “no withdrawal jumping is precipitated”, the ED50 (phenylquinone [2]; po, 10 min, p.o., 10 min p.i., ED50 rounded, read-out: ED50, writhing test, acute p.o., 10 min. p.i.) was 50 mg/kg and the ED50 (phenylquinone [2]; po, 0.5 h, p.o., 30 min p.i., ED50 rounded, read-out: ED50, writhing test, acute p.o., 30 min. p.i.) was 70 mg/kg. For the same compound, the ED50 (phenylquinone [2]; sc, 10 min, s.c., 10 min p.i., ED50 rounded, read-out: ED50, writhing test, acute s.c., 10 min. p.i.) was 3 mg/kg, the ED50 (phenylquinone [2]; sc, 0.5 h, s.c., 30 min p.i., * = significant difference between acute and subchronic ED50 (p < 0.001), read-out: ED50, writhing test, acute s.c., 30 min. p.i.) was 3 mg/kg and the tolerance development (phenylquinone [3]) was “do not exhibit tolerance development”. For the same compound, the ED50 (morphine [4]; Rattus norvegicus, sc, read-out: ED50, Morphine Antagonism-Tail-Flick Test, Rats) was 40 mg/kg, the “morphine-antagonistic activity, tail-flick test (in words), rats” value (morphine [4]; rat, in vivo) was “weaker activity, especially in rats” and the “precipitated withdrawal effect (in words)” value (morphine [5]) was “completely inactive”. For the same compound, the “ED50, Precipitated Withdrawal Jumping Test (inactive, footnote 3)” value (morphine [5]; tested at 0.78 - 50 mg/kg) was “Inactive” and the ED50 (apomorphine) was 40 mg/kg.
